According to patent publication US9127021B2, “Hepatitis C virus inhibitors” (priority 2010, dated 2015):
Read-outs that look alike come from different tables or passages of the source.

Tests used:
HCV 1a genotype replicon = experiment: HCV genotype 1a replicon assay (qRT-PCR or luciferase); format: cell-based; conditions: Hepatitis C virus
HCV 1b genotype replicon = experiment: HCV genotype 1b replicon assay (qRT-PCR or luciferase); format: cell-based; conditions: Hepatitis C virus
Text: HCV replicon cell lines (kindly provided by R. Bartenschlager) isolated from colonies as described by Lohman et al. (Lohman et al. (1999) Science 285: 110-113, expressly incorporated by reference in its entirety) and used for all experiments. The HCV replicon has the nucleic acid sequence set forth in EMBL Accession No.: AJ242651, the coding sequence of which is from nucleotides 1801 to 8406.
The coding sequence of the published HCV replicon was synthesized and subsequently assembled in a modified plasmid pBR322 (Promega, Madison, Wis.) using standard molecular biology techniques. […]
EC50 values of single agent compounds were determined by HCV RNA detection using quantitative RT-PCR, according to the manufacturer's instructions, with a TAQMAN® One-Step RT-PCR Master Mix Reagents Kit (Cat#AB 4309169, Applied Biosystems) on an ABI Model 7500 thermocycler. EC50 values of combinations are similarly determined by HCV RNA detection using quantitative RT-PCR. The TAQMAN primers to use for detecting and quantifying HCV RNA obtained from Integrated DNA Technologies. HCV RNA is normalized to GAPDH RNA levels in drug-treated cells, which is detected and quantified using the Human GAPDH Endogenous Control Mix (Applied Biosystems, AB 4310884E). […] Chemical agent cytotoxicity is evaluated using an MTS assay according to the manufacturer's directions (Promega). […]

Row | Structure (SMILES) | EC50 (HCV 1a genotype replicon; read-out: 1a EC50) | EC50 (HCV 1a genotype replicon; read-out: Range (EC50 range against HCV 1a)) | EC50 (HCV 1b genotype replicon; read-out: 1b EC50) | EC50 (HCV 1b genotype replicon; read-out: Range (EC50 range against HCV 1b))
1 | COC(=O)N[C@H](C(=O)N1CCC[C@H]1c1nc(-c2ccc(-c3ccc4c(c3)COCCCCO[C@H](C)[C@H](NC(=O)OC)C(=O)N3CCC[C@H]3c3nc-4c[nH]3)cc2)c[nH]1)C(C)C [Compound 346] | 2.4 nM | > 1 nM |  | 
2 | COC(=O)N[C@H]1CCCCOCc2cc(-c3ccc4cc(-c5c[nH]c([C@@H]6CCCN6C(=O)[C@@H](NC(=O)OC)C(C)C)n5)ccc4c3)ccc2NC(=O)[C@@H]2CCCN2C1=O [Compound 350] |  |  | 0.05 nM | < 0.1 nM
